Experimental data reported in the supplement of paper PMC7021759.

Test system: SK-N-MM (SKNMM-MYCN, doxycycline-inducible MYCN)
Assay: area under dose-response curve (CellTiter-Glo viability normalised to plate controls) (AUC (arbitrary units)); higher = more loss of viability; extreme values may be limits of the assay
Summary of the method: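 Compounds were pin-transferred as 10-point 1:3 dilution series (890-fold stock dilution) onto SK-N-MM cells with doxycycline-inducible MYCN, plated at 1250 cells/100 μL in 96-well plates and switched about 24 h after plating to medium with or without doxycycline two days before dosing. Dosing was repeated on day 4, and CellTiter-Glo luminescence was read 3 or 8 days after drugging. Area under the dose-response curve came from log2 signals normalised to the positive and negative controls on each plate.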

[1] = MYCN induction (doxycycline): +doxycycline (MYCN induced), time after drugging: 3 days
[2] = MYCN induction (doxycycline): +doxycycline (MYCN induced), time after drugging: 8 days
[3] = MYCN induction (doxycycline): no doxycycline (MYCN not induced), time after drugging: 3 days
[4] = MYCN induction (doxycycline): no doxycycline (MYCN not induced), time after drugging: 8 days

Structure (SMILES): Cc1ccc(Nc2nccc(N(C)c3ccc4c(C)n(C)nc4c3)n2)cc1S(N)(=O)=O [PAZOPANIB]
- area under dose-response curve [1]: 21.1
- area under dose-response curve [2]: 40.1
- area under dose-response curve [3]: 18.1
- area under dose-response curve [4]: 29.2

Structure (SMILES): Nc1nccc2c1ncn2[C@@H]1C=C(CO)[C@@H](O)[C@H]1O [3-DEAZANEPLANOCIN]
- area under dose-response curve [1]: 15.9
- area under dose-response curve [2]: 119
- area under dose-response curve [3]: 10.3
- area under dose-response curve [4]: 40.9

Structure (SMILES): CO[C@H]1C[C@@H]2CC[C@@H](C)[C@@](O)(O2)C(=O)C(=O)N2CCCC[C@H]2C(=O)O[C@H]([C@H](C)C[C@@H]2CC[C@@H](O)[C@H](OC)C2)CC(=O)[C@H](C)/C=C(\C)[C@@H](O)[C@@H](OC)C(=O)[C@H](C)C[C@H](C)/C=C/C=C/C=C/1C [SIROLIMUS]
- area under dose-response curve [1]: 18.2
- area under dose-response curve [2]: 7.23
- area under dose-response curve [3]: 41.5
- area under dose-response curve [4]: 24.7

Structure (SMILES): O=P1(NCCCl)OCCCN1CCCl (configuration not stated) [IFOSFAMIDE]
- area under dose-response curve [1]: 0
- area under dose-response curve [2]: 0
- area under dose-response curve [3]: 0

Structure (SMILES): OC[C@H]1O[C@@H](n2cnc3c2N=CNC[C@H]3O)C[C@@H]1O [PENTOSTATIN]
- area under dose-response curve [1]: 0
- area under dose-response curve [2]: 0
- area under dose-response curve [3]: 0

Structure (SMILES): COc1ccc(-c2cc(=O)c3c(O)cc(O)c(-c4cc(-c5cc(=O)c6c(O)cc(O)cc6o5)ccc4OC)c3o2)cc1 [ISOGINKGETIN]
- area under dose-response curve [2]: 61.2
- area under dose-response curve [3]: 15.4
- area under dose-response curve [4]: 24.2

Structure (SMILES): Cc1cccc(-c2nn3c(c2-c2ccnc4ccc(C(N)=O)cc24)CCC3)n1
- area under dose-response curve [1]: 0
- area under dose-response curve [2]: 0
- area under dose-response curve [3]: 0
- area under dose-response curve [4]: 0

Structure (SMILES): N#CCNC(=O)c1ccc(-c2ccnc(Nc3ccc(N4CCOCC4)cc3)n2)cc1
- area under dose-response curve [1]: 40.7
- area under dose-response curve [2]: 79.9
- area under dose-response curve [3]: 0
- area under dose-response curve [4]: 42

Structure (SMILES): C[C@H]1C[C@H]2[C@@H]3CCC4=CC(=O)C=C[C@]4(C)[C@@]3(F)[C@@H](O)C[C@]2(C)[C@@]1(O)C(=O)CO [BETAMETHASONE]
- area under dose-response curve [1]: 0
- area under dose-response curve [2]: 0
- area under dose-response curve [3]: 0

Structure (SMILES): COc1ccc2c(c1OC)C(=O)O[C@@H]2[C@H]1c2c(cc3c(c2OC)OCO3)CCN1C [NOSCAPINE]
- area under dose-response curve [1]: 0.556
- area under dose-response curve [2]: 19.8
- area under dose-response curve [3]: 0

Structure (SMILES): O=C(c1ccc(F)c(F)c1Nc1ccc(I)cc1F)N1CC(O)([C@@H]2CCCCN2)C1 [COBIMETINIB]
- area under dose-response curve [2]: 145
- area under dose-response curve [3]: 51.1
- area under dose-response curve [4]: 104

Structure (SMILES): CN1CCC(CNc2ccc3ncc(-c4cccc(OC(F)(F)F)c4)n3n2)CC1 [SGI-1776]
- area under dose-response curve [2]: 144
- area under dose-response curve [4]: 138

Structure (SMILES): CO[C@@]12[C@H](COC(N)=O)C3=C(C(=O)C(C)=C(N)C3=O)N1C[C@@H]1N[C@@H]12 [MITOMYCIN C]
- area under dose-response curve [1]: 11.1
- area under dose-response curve [2]: 100
- area under dose-response curve [3]: 4.39
- area under dose-response curve [4]: 78.3

Structure (SMILES): CC(=O)c1ccc2c(c1)c1cc(C(C)=O)ccc1n2CCNC(C)C [CBL-0137]
- area under dose-response curve [1]: 116
- area under dose-response curve [2]: 176
- area under dose-response curve [3]: 94.2
- area under dose-response curve [4]: 172

Structure (SMILES): Cc1cc(Nc2ncc(Cl)c(Nc3ccccc3S(=O)(=O)C(C)C)n2)c(OC(C)C)cc1C1CCNCC1 [CERITINIB]
- area under dose-response curve [1]: 175
- area under dose-response curve [2]: 168
- area under dose-response curve [3]: 172
- area under dose-response curve [4]: 170

Structure (SMILES): Cc1nc(=O)c2cc(CN(C)c3ccc(C(=O)N[C@@H](CCC(=O)O)C(=O)O)s3)ccc2[nH]1 [RALTITREXED]
- area under dose-response curve [1]: 22.3
- area under dose-response curve [2]: 166
- area under dose-response curve [3]: 6.42
- area under dose-response curve [4]: 63.1

Structure (SMILES): Cc1nc(-c2cn3c(n2)-c2ccc(-c4cnn(C(C)(C)C(N)=O)c4)cc2OCC3)n(C(C)C)n1 [TASELISIB]
- area under dose-response curve [1]: 23.1
- area under dose-response curve [2]: 34.9
- area under dose-response curve [3]: 34.6
- area under dose-response curve [4]: 39

Structure (SMILES): O=C(c1cc(Cc2n[nH]c(=O)c3ccccc23)ccc1F)N1CCN(C(=O)C2CC2)CC1 [OLAPARIB]
- area under dose-response curve [1]: 9.23
- area under dose-response curve [2]: 23.6
- area under dose-response curve [4]: 0

Structure (SMILES): CNC(=O)c1cc(Oc2ccc(NC(=O)Nc3ccc(Cl)c(C(F)(F)F)c3)cc2)ccn1 [SORAFENIB]
- area under dose-response curve [1]: 0
- area under dose-response curve [2]: 0
- area under dose-response curve [3]: 0
- area under dose-response curve [4]: 0

Structure (SMILES): CCOc1cc(C(C)(C)C)ccc1C1=N[C@@](C)(c2ccc(Cl)cc2)[C@@](C)(c2ccc(Cl)cc2)N1C(=O)N1CCN(CCCS(C)(=O)=O)CC1 [RG7112]
- area under dose-response curve [1]: 0
- area under dose-response curve [2]: 0
- area under dose-response curve [3]: 0
- area under dose-response curve [4]: 0

Structure (SMILES): CN(C)C(=O)c1cc2cnc(Nc3ccc(N4CCNCC4)cn3)nc2n1C1CCCC1 [RIBOCICLIB]
- area under dose-response curve [1]: 7.07e-05
- area under dose-response curve [2]: 12.9
- area under dose-response curve [3]: 0
- area under dose-response curve [4]: 15.9

Structure (SMILES): CN(C)C/C=C/C(=O)Nc1ccc(C(=O)Nc2cccc(Nc3ncc(Cl)c(-c4c[nH]c5ccccc45)n3)c2)cc1 [THZ1]
- area under dose-response curve [1]: 102
- area under dose-response curve [2]: 240
- area under dose-response curve [3]: 51.7
- area under dose-response curve [4]: 190

Structure (SMILES): COC1=CC(c2cc3ccccc3[nH]2)=N/C1=C\c1[nH]c(C)cc1C [OBATOCLAX]
- area under dose-response curve [1]: 195
- area under dose-response curve [2]: 255
- area under dose-response curve [3]: 178
- area under dose-response curve [4]: 229

Structure (SMILES): C/C(=C\c1csc(C)n1)[C@@H]1C[C@@H]2O[C@]2(C)CCC[C@H](C)[C@H](O)[C@@H](C)C(=O)C(C)(C)[C@@H](O)CC(=O)N1 [IXABEPILONE]
- area under dose-response curve [1]: 121
- area under dose-response curve [2]: 199
- area under dose-response curve [3]: 89.9
- area under dose-response curve [4]: 138

Structure (SMILES): CC[C@@H]1C(=O)N(C)c2cnc(Nc3ccc(C(=O)NC4CCN(C)CC4)cc3OC)nc2N1C1CCCC1 [BI-2536]
- area under dose-response curve [1]: 85.3
- area under dose-response curve [2]: 213
- area under dose-response curve [3]: 65.4
- area under dose-response curve [4]: 92.1

Structure (SMILES): CC[C@H](Nc1nc(NCc2cnc(C)cc2C)c2ncn(C(C)C)c2n1)[C@@H](C)O [CYC-065]
- area under dose-response curve [1]: 66.2
- area under dose-response curve [2]: 165
- area under dose-response curve [3]: 45.7
- area under dose-response curve [4]: 160

Structure (SMILES): Nc1nc(Cl)nc2c1ncn2[C@@H]1O[C@H](CO)[C@@H](O)[C@@H]1F [CLOFARABINE]
- area under dose-response curve [1]: 67.5
- area under dose-response curve [2]: 248
- area under dose-response curve [3]: 43
- area under dose-response curve [4]: 141

Structure (SMILES): Nc1ncn([C@@H]2O[C@H](CO)[C@@H](O)[C@H]2O)c(=O)n1 [5-AZACYTIDINE]
- area under dose-response curve [1]: 33.8
- area under dose-response curve [2]: 58.3
- area under dose-response curve [3]: 21.5
- area under dose-response curve [4]: 23.6

Structure (SMILES): COc1cc2/c(=N/c3ccc(Br)cc3F)nc[nH]c2cc1OCC1CCN(C)CC1 [VANDETANIB]
- area under dose-response curve [1]: 3.18
- area under dose-response curve [2]: 0
- area under dose-response curve [3]: 2.99
- area under dose-response curve [4]: 125

Structure (SMILES): Nc1nc2[nH]cc(CCc3ccc(C(=O)N[C@@H](CCC(=O)O)C(=O)O)cc3)c2c(=O)[nH]1 [PEMETREXED]
- area under dose-response curve [1]: 6.04
- area under dose-response curve [2]: 112
- area under dose-response curve [3]: 0
- area under dose-response curve [4]: 58.3

Structure (SMILES): CC[C@]1(O)C[C@H]2CN(CCc3c([nH]c4ccccc34)[C@@](C(=O)OC)(c3cc4c(cc3OC)N(C=O)[C@H]3[C@@](O)(C(=O)OC)[C@H](OC(C)=O)[C@]5(CC)C=CCN6CC[C@]43[C@@H]65)C2)C1 [VINCRISTINE]
- area under dose-response curve [1]: 185
- area under dose-response curve [2]: 253
- area under dose-response curve [3]: 89.2
- area under dose-response curve [4]: 146

Structure (SMILES): Cc1cc(C2CCCCC2)n(O)c(=O)c1 [CICLOPIROX]
- area under dose-response curve [1]: 0
- area under dose-response curve [2]: 97.9
- area under dose-response curve [3]: 15.5
- area under dose-response curve [4]: 41.6

Structure (SMILES): C[C@@H](Oc1cc(-c2cnn(C3CCNCC3)c2)cnc1N)c1c(Cl)ccc(F)c1Cl [CRIZOTINIB]
- area under dose-response curve [1]: 145
- area under dose-response curve [2]: 196
- area under dose-response curve [3]: 147
- area under dose-response curve [4]: 178

Structure (SMILES): CCC(C)n1ncn(-c2ccc(N3CCN(c4ccc(OCC5COC(Cn6cncn6)(c6ccc(Cl)cc6Cl)O5)cc4)CC3)cc2)c1=O (configuration not stated) [ITRACONAZOLE]
- area under dose-response curve [1]: 13.1
- area under dose-response curve [2]: 26.1
- area under dose-response curve [3]: 11.4
- area under dose-response curve [4]: 26.1

Structure (SMILES): CON(C)C(=O)N1N=C(c2cc(F)ccc2F)S[C@@]1(CCCN)c1ccccc1 [ARRY-520]
- area under dose-response curve [1]: 218
- area under dose-response curve [2]: 288
- area under dose-response curve [3]: 108
- area under dose-response curve [4]: 154

Structure (SMILES): Cc1cc(Nc2ccc(NC(=O)c3ccc(Nc4ccnc5ccccc45)cc3)cc2)nc(N)n1 [SGI-1027]
- area under dose-response curve [1]: 80.5
- area under dose-response curve [2]: 201
- area under dose-response curve [3]: 26.5
- area under dose-response curve [4]: 105

Structure (SMILES): O=C(Nc1ccccc1-c1cn2c(CN3CCNCC3)csc2n1)c1cnc2ccccc2n1 [SRT1720]
- area under dose-response curve [1]: 187
- area under dose-response curve [2]: 220
- area under dose-response curve [3]: 0.00298
- area under dose-response curve [4]: 213

Structure (SMILES): Cc1ccc(NC(=O)c2ccc(CN3CCN(C)CC3)cc2)cc1Nc1nc(-c2cccnc2)cs1 [MASITINIB]
- area under dose-response curve [1]: 0
- area under dose-response curve [2]: 0
- area under dose-response curve [3]: 0
- area under dose-response curve [4]: 2.84

Structure (SMILES): CC1(C)CNc2cc(NC(=O)c3cccnc3NCc3ccncc3)ccc21 [MOTESANIB DIPHOSPHATE]
- area under dose-response curve [1]: 0
- area under dose-response curve [2]: 0
- area under dose-response curve [3]: 5.62
- area under dose-response curve [4]: 0
